ChEMBL document CHEMBL5465560, “Selectivity Literature for EUbOPEN Chemogenomic Library” (2024)

Key:
[1] = biological target: T1, Histone-lysine N-methyltransferase SUV39H1 (Homo sapiens) (UniProt O43463); assay: Selectivity interaction (Transferase panel (protein, RNA, and DNA methyltransferases. and EP300 (acetyltransferase))) EUB0000270b SUV39H1
T1 sequence (whole entry): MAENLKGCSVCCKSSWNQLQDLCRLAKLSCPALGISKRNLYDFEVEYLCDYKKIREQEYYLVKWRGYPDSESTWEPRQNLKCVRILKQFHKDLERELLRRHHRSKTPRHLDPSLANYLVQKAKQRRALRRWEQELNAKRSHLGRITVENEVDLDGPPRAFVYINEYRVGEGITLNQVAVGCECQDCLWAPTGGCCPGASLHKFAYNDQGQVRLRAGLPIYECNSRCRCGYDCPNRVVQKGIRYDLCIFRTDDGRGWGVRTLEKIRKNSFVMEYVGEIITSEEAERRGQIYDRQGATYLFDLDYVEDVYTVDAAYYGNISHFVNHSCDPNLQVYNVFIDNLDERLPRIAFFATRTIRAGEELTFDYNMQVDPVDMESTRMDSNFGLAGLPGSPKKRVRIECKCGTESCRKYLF

[2] = biological target: Histone-lysine N-methyltransferase KMT5B (Homo sapiens) (UniProt Q4FZB7); assay: Selectivity interaction (Transferase panel (protein, RNA, and DNA methyltransferases. and EP300 (acetyltransferase))) EUB0000270b SUV420H1
Sequence of Histone-lysine N-methyltransferase KMT5B (Homo sapiens) (Q4FZB7 whole entry, looked up): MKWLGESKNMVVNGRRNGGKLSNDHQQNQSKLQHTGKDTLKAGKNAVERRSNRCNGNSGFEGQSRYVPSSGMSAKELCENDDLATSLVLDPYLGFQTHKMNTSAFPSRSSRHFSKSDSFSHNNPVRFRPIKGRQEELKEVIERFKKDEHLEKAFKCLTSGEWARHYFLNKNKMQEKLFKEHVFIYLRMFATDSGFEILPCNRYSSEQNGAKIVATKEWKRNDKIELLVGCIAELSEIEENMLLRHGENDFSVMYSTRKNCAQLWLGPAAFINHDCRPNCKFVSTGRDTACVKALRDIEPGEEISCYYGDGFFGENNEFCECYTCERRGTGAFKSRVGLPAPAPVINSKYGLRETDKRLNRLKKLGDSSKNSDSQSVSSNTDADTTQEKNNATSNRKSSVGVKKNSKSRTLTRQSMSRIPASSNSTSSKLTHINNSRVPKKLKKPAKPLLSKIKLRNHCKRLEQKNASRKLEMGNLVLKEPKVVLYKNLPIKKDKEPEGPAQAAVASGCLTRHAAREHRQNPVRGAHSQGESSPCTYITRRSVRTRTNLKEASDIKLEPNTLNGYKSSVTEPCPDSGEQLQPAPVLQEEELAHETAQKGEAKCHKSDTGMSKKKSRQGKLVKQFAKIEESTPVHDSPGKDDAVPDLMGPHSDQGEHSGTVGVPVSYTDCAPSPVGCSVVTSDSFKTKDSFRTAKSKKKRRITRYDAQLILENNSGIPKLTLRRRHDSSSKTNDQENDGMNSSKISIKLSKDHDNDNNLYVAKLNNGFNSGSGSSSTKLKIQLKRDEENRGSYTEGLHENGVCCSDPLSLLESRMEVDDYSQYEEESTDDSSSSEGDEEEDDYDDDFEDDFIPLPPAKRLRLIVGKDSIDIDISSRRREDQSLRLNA

Misshapen-like kinase 1 = Misshapen-like kinase 1 (Homo sapiens, UniProt Q8N4C8); assay: Selectivity interaction (KinomeScan (DiscoverX)) EUB0000595a MINK1; conditions: at 10 µM
Sequence of Misshapen-like kinase 1 (Q8N4C8 whole entry, looked up): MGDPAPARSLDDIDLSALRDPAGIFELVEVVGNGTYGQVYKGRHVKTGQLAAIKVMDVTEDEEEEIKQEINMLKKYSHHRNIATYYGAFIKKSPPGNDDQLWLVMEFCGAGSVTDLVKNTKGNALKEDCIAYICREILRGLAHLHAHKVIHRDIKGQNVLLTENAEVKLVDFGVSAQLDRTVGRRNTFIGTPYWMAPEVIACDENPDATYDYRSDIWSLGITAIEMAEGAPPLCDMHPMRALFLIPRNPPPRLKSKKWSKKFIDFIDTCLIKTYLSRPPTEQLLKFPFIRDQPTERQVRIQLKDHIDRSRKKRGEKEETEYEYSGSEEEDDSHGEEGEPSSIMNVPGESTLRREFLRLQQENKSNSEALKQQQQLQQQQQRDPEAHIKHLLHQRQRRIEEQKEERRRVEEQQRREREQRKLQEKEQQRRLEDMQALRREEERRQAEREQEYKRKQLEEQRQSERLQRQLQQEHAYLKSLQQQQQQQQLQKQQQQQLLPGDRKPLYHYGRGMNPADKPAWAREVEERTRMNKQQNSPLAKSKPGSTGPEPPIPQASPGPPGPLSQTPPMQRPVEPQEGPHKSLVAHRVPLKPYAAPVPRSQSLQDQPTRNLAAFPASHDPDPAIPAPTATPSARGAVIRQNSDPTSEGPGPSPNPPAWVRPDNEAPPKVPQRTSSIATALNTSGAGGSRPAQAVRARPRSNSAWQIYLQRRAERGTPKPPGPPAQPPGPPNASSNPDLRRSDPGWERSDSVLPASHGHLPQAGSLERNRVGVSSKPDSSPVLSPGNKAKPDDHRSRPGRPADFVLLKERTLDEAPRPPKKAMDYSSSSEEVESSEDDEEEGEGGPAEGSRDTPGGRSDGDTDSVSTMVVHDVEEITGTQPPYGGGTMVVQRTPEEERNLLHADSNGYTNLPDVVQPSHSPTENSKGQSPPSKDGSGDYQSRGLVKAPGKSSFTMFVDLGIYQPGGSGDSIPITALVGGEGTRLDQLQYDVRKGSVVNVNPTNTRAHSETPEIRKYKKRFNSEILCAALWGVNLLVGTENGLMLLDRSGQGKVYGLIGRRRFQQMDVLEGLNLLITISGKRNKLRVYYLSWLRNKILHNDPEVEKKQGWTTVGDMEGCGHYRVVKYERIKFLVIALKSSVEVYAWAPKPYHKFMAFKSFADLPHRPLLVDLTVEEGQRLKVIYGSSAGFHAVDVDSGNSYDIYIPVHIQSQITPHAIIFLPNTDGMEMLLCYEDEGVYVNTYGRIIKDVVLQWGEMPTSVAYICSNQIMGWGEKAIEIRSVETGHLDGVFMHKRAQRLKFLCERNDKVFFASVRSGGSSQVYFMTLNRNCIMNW

[3] = biological target: T2, Mitogen-activated protein kinase kinase kinase 7 (Homo sapiens) (UniProt O43318); assay: Selectivity interaction (KinomeScan (DiscoverX)) EUB0000092b MAP3K7; conditions: at 10 µM
T2 sequence (whole entry): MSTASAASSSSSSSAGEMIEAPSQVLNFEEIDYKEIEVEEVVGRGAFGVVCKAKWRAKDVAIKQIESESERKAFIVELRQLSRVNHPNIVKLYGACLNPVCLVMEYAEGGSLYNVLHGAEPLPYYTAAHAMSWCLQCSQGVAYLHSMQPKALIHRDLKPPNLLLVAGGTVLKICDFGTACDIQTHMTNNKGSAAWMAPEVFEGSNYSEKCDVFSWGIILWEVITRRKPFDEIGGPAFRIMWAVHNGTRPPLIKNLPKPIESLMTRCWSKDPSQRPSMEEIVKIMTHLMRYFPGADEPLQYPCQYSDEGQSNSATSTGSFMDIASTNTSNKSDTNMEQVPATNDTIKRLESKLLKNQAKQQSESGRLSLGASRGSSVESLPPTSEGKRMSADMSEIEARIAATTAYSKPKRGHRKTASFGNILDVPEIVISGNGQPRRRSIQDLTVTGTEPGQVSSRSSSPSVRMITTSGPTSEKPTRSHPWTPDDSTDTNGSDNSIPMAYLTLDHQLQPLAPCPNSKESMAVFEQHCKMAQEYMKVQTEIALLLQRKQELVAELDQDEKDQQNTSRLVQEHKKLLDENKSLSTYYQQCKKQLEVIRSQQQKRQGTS

[4] = biological target: T3, Ephrin type-A receptor 6 (Homo sapiens) (UniProt Q9UF33); assay: Selectivity interaction (KinomeScan (DiscoverX)) EUB0000045b EPHA6
T3 sequence (whole entry): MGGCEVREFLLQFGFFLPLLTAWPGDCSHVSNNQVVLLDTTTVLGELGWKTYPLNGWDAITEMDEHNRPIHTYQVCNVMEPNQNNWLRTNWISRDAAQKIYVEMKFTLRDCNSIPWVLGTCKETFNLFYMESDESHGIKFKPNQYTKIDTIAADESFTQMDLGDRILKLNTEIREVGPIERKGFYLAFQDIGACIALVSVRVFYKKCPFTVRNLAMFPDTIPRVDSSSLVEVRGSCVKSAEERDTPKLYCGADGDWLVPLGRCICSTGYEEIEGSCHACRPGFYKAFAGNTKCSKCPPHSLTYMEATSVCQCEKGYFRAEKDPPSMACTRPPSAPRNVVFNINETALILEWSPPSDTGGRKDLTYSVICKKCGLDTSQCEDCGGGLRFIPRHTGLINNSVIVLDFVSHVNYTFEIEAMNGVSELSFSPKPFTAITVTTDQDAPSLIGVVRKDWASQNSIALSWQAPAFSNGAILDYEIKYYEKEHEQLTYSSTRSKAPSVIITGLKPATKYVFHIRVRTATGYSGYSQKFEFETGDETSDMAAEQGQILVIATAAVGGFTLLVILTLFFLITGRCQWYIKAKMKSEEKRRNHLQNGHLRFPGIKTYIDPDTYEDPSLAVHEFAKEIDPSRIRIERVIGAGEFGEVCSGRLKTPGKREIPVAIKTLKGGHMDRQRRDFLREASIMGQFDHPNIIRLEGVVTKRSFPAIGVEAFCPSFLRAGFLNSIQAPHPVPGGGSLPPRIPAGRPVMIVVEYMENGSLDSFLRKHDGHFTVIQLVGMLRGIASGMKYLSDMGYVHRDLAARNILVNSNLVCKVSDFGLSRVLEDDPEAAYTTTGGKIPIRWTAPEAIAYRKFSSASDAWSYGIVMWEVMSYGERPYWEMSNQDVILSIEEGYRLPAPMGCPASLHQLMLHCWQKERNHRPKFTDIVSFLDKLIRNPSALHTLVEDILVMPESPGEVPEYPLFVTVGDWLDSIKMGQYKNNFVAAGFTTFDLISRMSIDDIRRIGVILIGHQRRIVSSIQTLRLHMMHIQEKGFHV

[5] = biological target: Macrophage-stimulating protein receptor (Homo sapiens, UniProt Q04912); assay: Selectivity interaction (Upstate Kinase Profiler service (Millipore)) EUB0000056c MST1R; conditions: at 1 µM
Sequence of Macrophage-stimulating protein receptor (Q04912 25-304 limits assumed): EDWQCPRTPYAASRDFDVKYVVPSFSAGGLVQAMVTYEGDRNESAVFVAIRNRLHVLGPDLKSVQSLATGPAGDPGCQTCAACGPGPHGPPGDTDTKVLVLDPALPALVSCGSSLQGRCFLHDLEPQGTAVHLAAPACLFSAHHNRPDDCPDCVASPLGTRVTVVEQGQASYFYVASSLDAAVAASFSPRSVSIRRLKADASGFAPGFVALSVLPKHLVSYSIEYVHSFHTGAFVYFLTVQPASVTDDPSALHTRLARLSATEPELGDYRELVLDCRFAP
Sequence of Macrophage-stimulating protein receptor (Q04912 310-1400 limits assumed): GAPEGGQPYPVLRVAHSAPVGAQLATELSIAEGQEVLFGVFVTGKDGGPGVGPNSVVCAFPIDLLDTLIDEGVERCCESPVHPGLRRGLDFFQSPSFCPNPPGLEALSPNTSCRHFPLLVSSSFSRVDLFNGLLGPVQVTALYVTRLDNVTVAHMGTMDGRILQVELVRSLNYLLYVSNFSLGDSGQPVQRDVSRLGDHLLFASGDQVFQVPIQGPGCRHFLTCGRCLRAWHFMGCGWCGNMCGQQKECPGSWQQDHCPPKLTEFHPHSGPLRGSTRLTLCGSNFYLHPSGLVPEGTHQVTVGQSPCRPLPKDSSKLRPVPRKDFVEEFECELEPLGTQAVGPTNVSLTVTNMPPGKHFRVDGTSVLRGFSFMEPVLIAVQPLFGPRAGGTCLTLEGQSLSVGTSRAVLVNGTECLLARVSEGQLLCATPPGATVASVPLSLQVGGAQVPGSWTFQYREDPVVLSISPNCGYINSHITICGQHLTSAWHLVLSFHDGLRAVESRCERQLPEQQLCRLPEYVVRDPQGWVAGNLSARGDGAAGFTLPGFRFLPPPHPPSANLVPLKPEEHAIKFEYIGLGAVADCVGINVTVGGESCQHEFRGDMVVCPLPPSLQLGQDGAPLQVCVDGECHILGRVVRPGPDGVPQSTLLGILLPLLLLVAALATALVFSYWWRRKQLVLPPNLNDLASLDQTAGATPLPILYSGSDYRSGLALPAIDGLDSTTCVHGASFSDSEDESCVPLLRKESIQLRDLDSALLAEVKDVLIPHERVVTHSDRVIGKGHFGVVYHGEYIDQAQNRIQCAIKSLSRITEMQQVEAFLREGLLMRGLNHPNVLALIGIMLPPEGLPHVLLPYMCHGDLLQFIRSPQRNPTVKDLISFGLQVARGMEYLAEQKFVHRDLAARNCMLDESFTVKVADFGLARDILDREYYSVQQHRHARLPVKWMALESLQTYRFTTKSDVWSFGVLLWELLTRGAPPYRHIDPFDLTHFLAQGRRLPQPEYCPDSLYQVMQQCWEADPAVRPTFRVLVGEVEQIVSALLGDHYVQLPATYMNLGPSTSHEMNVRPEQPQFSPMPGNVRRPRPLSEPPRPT

[6] = biological target: Beta-2 adrenergic receptor (Homo sapiens, UniProt P07550); assay: Selectivity interaction (Panel of kinases, GPCRs, ion channels and transporters (enzymatic assay)) EUB0000266bCl ADRB2
[7] = biological target: Vascular endothelial growth factor receptor 2 (Homo sapiens, UniProt P35968); assay: Selectivity interaction (ProQinase) EUB0000171b KDR
Sequence of Vascular endothelial growth factor receptor 2 (P35968 whole entry): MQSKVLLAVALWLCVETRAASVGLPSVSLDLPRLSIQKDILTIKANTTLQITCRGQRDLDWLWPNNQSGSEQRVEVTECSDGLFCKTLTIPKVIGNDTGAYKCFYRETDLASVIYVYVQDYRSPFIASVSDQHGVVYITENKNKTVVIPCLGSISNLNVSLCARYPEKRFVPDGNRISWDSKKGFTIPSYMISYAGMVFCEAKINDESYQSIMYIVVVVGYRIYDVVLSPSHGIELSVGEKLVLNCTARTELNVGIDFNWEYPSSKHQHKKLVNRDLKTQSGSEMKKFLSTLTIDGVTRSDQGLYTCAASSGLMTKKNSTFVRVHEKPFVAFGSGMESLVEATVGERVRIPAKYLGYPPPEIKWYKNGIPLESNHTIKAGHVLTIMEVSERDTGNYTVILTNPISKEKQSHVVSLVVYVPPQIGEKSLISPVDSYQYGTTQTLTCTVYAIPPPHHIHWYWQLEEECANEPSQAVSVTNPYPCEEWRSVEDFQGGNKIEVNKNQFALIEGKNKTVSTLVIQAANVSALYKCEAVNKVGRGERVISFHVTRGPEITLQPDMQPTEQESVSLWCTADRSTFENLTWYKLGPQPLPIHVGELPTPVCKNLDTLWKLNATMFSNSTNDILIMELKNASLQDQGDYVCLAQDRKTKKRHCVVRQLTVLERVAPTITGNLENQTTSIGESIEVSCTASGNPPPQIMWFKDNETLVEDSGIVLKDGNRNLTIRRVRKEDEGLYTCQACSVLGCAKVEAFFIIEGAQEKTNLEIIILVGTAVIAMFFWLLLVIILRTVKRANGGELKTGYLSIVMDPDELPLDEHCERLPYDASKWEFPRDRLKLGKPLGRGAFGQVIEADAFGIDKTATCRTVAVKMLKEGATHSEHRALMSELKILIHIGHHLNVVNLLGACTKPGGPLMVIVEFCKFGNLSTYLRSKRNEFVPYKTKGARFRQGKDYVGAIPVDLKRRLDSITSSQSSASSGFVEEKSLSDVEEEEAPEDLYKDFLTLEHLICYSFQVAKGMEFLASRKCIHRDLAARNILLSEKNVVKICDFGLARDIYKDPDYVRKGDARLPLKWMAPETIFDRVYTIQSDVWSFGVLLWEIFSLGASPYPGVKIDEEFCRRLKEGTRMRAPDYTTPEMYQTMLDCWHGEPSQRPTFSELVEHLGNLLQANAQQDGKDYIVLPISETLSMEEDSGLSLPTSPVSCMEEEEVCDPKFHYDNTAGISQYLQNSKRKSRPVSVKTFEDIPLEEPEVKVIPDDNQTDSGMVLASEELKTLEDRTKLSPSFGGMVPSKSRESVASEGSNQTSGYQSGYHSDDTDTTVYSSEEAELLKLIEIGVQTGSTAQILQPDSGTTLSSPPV

## Cc1cc(CN)cc(C)c1-c1ncn(C)c1-c1cncn1C
[1]; at 1 µM
  % activity: > 90%
[1]; at 10 µM
  % activity: > 80%
[2]; at 1 µM
  % activity: > 90%
[2]; at 10 µM
  % activity: > 80%

## COCC(=O)NC/C=C/c1ccc2ncnc(Nc3ccc(Oc4ccc(C)nc4)c(C)c3)c2c1 [CP-724714]
Misshapen-like kinase 1
  % of control: 77%

## CCC(=O)N1CCN(c2ccc(-n3c(=O)ccc4cnc5ccc(-c6cnc7ccccc7c6)cc5c43)cc2C(F)(F)F)CC1
[3]
  % of control: 47%

## C=CC(=O)Nc1cc(-n2c(=O)ccc3cnc4ccc(-c5ccc(NS(C)(=O)=O)cc5)cc4c32)ccc1C
[4]; at 1 µM
  % of control: 96%
[4]; at 10 µM
  % of control: 87%

## Cc1ccc(-c2ccc3c(ccc4sc5c(c43)NC[C@@H](C)NC5=O)n2)cn1
[5]
  % of inhibition: 20%

## CCn1c(-c2nc3cc(C(=O)N4CCCC(N)C4)ccc3n2C)cc2ccccc21 (configuration not stated)
[6]
  pXC50: < 4.5 M

## C=CC(=O)Nc1cccc(C(=O)Nc2ccc(Nc3cc(-c4[nH]c(SC)nc4C)ccn3)cc2)c1
[7]; at 1 µM
  % of control: 78%
[7]; at 5 µM
  % of control: 50%
